In patent publication US20080214658A1, “Composition Comprising Isoorientin for Suppressing Histamine” (UNIGEN, INC., priority 2005, published 2008):

Tested on: guinea pig lung mast cells
Assay: Histamine release from passively sensitized (anti-OVA antibody) lung mast cells activated by OVA
Assay type: cell-based
Conditions: for Histamine (%) (amount of histamine released as percentage of the total histamine content) / inhibition % of histamine release: 4 × 10^5 mast cells, added 5 min before 1.0 μg/ml OVA challenge; for inhibition % of histamine release: vs OVA alone
Description: In each enzyme treatment, the lung tissues were filtered with nylon mesh and metal mesh (100 μm), and centrifuged (called as monodispersed mast cells). Pellets were suspended in 16 ml of buffer (TG buffer) containing Ca^2+, Mg^2+-free, and 0.1% gelatin, loaded to rough Percoll ([…] density), and centrifuged at 1,400 rpm for 25 minutes to give pellets. The cells were suspended again in 8 ml of TG buffer, loaded to discontinuous Percoll ([…] density), and centrifuged again at 1400 rpm for 25 minutes to afford various kinds of cell layers. Among them, mast cells were mainly present in 3rd or 4th layer, and so cells obtained from these layers were washed with TGCM buffer twice. […] Mast cells (4×10^5 cells) were treated with guinea pig IgG1 antibody (anti-OVA 1 ml/10^6 cells), reacted at 37° C. for 45 minutes, and then washed with TGCM buffer to remove anti-OVA antibody which was not bound to mast cells membrane. The cells were suspended in 1 ml of TGCM buffer, and treated with drug (testing substance) at each concentration for 5 minutes. The suspension was […] with 1.0 μg/ml OVA (ovalbumin), reacted for 10 minutes, cooled at ice, and centrifuged. After the centrifuge, histamine in supernatant was measured. […] The amount of histamine contained in each sample was calculated as percentage against the amount of histamine contained in total cells used, as follows. [formula]

`O=c1cc(-c2ccc(O)c(O)c2)oc2cc(O)c([C@@H]3O[C@H](CO)[C@@H](O)[C@H](O)[C@H]3O)c(O)c12` [Isoorientin, isoorientin] was tested, and the IC50 (Cavia porcellus, Mast cell, guinea pig lung mast cells, anti-OVA sensitized, OVA challenge, read-out: IC50 value, inhibition of histamine release in mast cells) was 30 µg/mL, the “Histamine (%) (amount of histamine released as percentage of the total histamine content)” value (sample 1.25 μg) was 27.9 ± 2.62% and the “inhibition % of histamine release” value (sample 1.25 μg) was 14%. The “Histamine (%) (amount of histamine released as percentage of the total histamine content)” value (sample 2.5 μg) was 25.6 ± 1.49%, the “inhibition % of histamine release” value (sample 2.5 μg) was 21.3% and the “Histamine (%) (amount of histamine released as percentage of the total histamine content)” value (sample 5 μg) was 21.9 ± 2.01%. For the same compound, the “inhibition % of histamine release” value (sample 5 μg) was 32.6%, the “Histamine (%) (amount of histamine released as percentage of the total histamine content)” value (sample 10 μg) was 17.2 ± 1.07% and the “inhibition % of histamine release” value (sample 10 μg) was 47.2%.
